Measured values published in PMC12015663 (Cancer Research Communications, 2025).
pEC50, pIC50: −log10 of the molar value. Where two headings read alike, the source gives them in different places.

Assays:
[1] = tested on: pERK in NCI-H1838 (NF1-LOF); experiment: pERK modulation in vitro, MSD ELISA, NCI-H1838; details: for extent of the pERK increase: NCI-H1838, compared across type II RAF inhibitors; for pEC50: read-out: pERK EC50
Method: (§1) MSD ELISA experiments were conducted by WuXi AppTec on whole cell lysates and generated using the Phospho/Total ERK1/2 Assay Whole Cell Lysate Kit (MSD, cat. no. K15107D) according to the manufacturer’s protocol.
(§2) In vitro modulation of pERK levels was assessed in NF1-LOF and BRAF V600E tumor cell lines by MSD ELISA.
(§3) pERK levels were assessed 1 hour after treatment with each of the test compounds or control. Preparation of 96-well plates for MSD ELISA was performed according to the manufacturer’s instructions using the Phospho/Total ERK1/2 Assay Whole Cell Lysate Kit (MSD, cat no. K15107D). The plates were read using the MSD reader (MESO QuickPlex SQ120, cat. no. SQ120, RRID: SCR_020304). The A375 BRAF V600E tumor cell line served as a positive control.
(§4) The percent phosphoprotein in a sample was calculated using MSD phospho-/total multiplex phosphoprotein assays, as well as the following formula: anti-total and anti-phospho assay in the same well: % phosphoprotein = [(2 × phospho signal)/(phospho signal + total signal)] × 100. The ratio of pERK to total ERK was normalized to the ratio of the DMSO control group. EC50 pERK values and concentration response curves were generated using GraphPad Prism software analysis (RRID: SCR_002798).

[2] = tested on: pERK in A375 (BRAF V600E); experiment: pERK modulation in vitro, MSD ELISA, A375; format: cell-based; details: A375, BRAF V600E, melanoma, 1 hour after treatment, n = 2, read-out: pERK EC50
Method: as §1, §2, §3, §4

ARAF = target: T1, ARAF (Homo sapiens, UniProt P10398); experiment: Time-resolved fluorescence energy transfer binding assay (KINETICfinder); details: partial length active recombinant human ARAF at 5 nmol/L; 60 minutes, room temperature; singlicate
T1 sequence (P10398 310-570 limits assumed): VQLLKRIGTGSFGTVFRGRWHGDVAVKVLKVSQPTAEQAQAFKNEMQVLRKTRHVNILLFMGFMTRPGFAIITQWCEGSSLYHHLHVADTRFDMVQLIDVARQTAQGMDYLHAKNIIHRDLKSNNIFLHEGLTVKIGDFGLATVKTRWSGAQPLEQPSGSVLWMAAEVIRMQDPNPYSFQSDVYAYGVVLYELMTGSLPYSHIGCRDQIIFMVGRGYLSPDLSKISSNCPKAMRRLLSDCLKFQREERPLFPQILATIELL
Method: Compounds were mixed with assay buffer (50 mmol/L HEPES pH 7.5, 1 mmol/L Ethyleneglycol-bis-(aminoethyl-ether)-N,N,N',N'-tetraacetic acid, 0.01% Brij-35, 10 mmol/L MgCl2, and 2 mmol/L Dithiothreitol), and 5 μL of this solution was transferred to the assay plate. The final concentration of DMSO in the assay was 1%. Hundred percent DMSO was used as a high and low control. Assays were run in singlicate with a reference compound included in each assay to evaluate reproducibility and assay quality.
Wells containing the fluorescent probe, antibody, and target (ARAF) were used as the high reaction control (total binding) and wells containing the probe and antibody were used as the low reaction control (nonspecific binding). […] Next, the substrate antibody solution was added, and the reaction was incubated for 60 minutes at room temperature. Percentage inhibition of each well was calculated using the following formula: % inhibition = 100 − [compound emission ratio (ER) − low control ER/high control ER − low control ER] × 100. Results were fitted to a concentration response curve with a variable slope and constraints of 0 and 100 for bottom and top, respectively, to generate the IC50 values.

BRAF wt = tested on: BRAF wt; parameters: method as in earlier work; details: full length human construct; 0.125 nmol/L GST-tagged BRAF wild type, 12.5 nmol/L biotinylated MEK, ATP 50 μmol/L; 41 (TAK-632: ref 26-28); cited from earlier work
CRAF wt = tested on: CRAF wt; parameters: method as in earlier work; details: full length human construct; GST-tagged CRAF wild type, 50 nmol/L biotinylated MEK, ATP 10 μmol/L; 41 (TAK-632: ref 26-28); cited from earlier work
MeWo = experiment: CellTiter-Glo cell viability assay, MeWo
Method: (§5) Next, 2 μL of each concentration was added to 198 μL assay medium (PBS) to create a 10× stock. […] MSD ELISA experiments were conducted by WuXi AppTec on whole cell lysates and generated using the Phospho/Total ERK1/2 Assay Whole Cell Lysate Kit (MSD, cat. no. K15107D) according to the manufacturer’s protocol.
(§6) The in vitro anti-proliferation effect of each of the test compounds was assessed in NF1-LOF and BRAF V600E tumor cell lines cultured as a monolayer using the CellTiter-Glo (CTG) cell viability assay. Cell culture experiments were performed with duplicate wells. Cell concentrations were adjusted for cell density (seeding density of 5,000 for sNF96.2 and MeWo; 6,000 for NCI-H1838; and 2,500 for A375) prior to plating onto a 96-well assay plate and incubated overnight at 37°C with 5% CO2, 95% air, and 100% relative humidity.
(§7) Anti-proliferative activity was assessed after 72 hours of treatment with the test compound or control. […] DMSO was also applied as a control on days 2 and 3. The final DMSO concentration for all test compounds and vehicle control was 0.1%. The A375 BRAF V600E tumor cell line served as a positive control. Preparation of 96-well plates for CTG assays was performed according to the manufacturer’s instructions using the CTG Luminescent Cell Viability Assay Kit (Promega, RRID: SCR_006724, cat. no. G7573). Luminescence was measured on day 3 using the 2104 EnVision Multilabel Reader (PerkinElmer).
(§8) The inhibition rate of the tested compounds was determined using the following formula: inhibition rate (%) = (1 − [relative luminescence unit (RLU) compound − RLU blank])/(RLU control − RLU blank) × 100. EC50 proliferation values were generated using GraphPad Prism software analysis.

A375 = experiment: CellTiter-Glo cell viability assay, A375; details: read-out: Proliferation EC50
Method: as §5, §6
(§9) Anti-proliferative activity was assessed after 72 hours of treatment with the test compound or control. […] DMSO was also applied as a control on days 2 and 3. The final DMSO concentration for all test compounds and vehicle control was 0.1%. […] Luminescence was measured on day 3 using the 2104 EnVision Multilabel Reader (PerkinElmer).
(§10) The inhibition rate of the tested compounds was determined using the following formula: inhibition rate (%) = (1 − [relative luminescence unit (RLU) compound − RLU blank])/(RLU control − RLU blank) × 100. […]

pERK in MeWo (NF1-LOF) = experiment: pERK modulation in vitro, MSD ELISA, MeWo
Method: as §1, §2, §3, §4

sNF96.2 = experiment: CellTiter-Glo cell viability assay, sNF96.2; details: read-out: Proliferation EC50
Method: as §5, §6, §7, §8

[3] = tested on: pERK in sNF96.2 (NF1-LOF); experiment: pERK modulation in vitro, MSD ELISA, sNF96.2; details: read-out: pERK EC50
Method: as §1, §2, §3, §4

NCI-H1838 = experiment: CellTiter-Glo cell viability assay, NCI-H1838; details: read-out: Proliferation EC50
Method: as §5, §6, §9, §10

NF1-LOF tumor cell lines = experiment: CellTiter-Glo cell viability assay, statement on all three NF1-LOF tumor cell lines; details: CTG 72 hours
Method: as §5, §6, §9, §10

Question: For `Cc1ccc(NC(=O)c2ccnc(C(F)(F)F)c2)cc1-c1cc(OCCO)nc(N2CCOCC2)c1` [LXH254], which “extent of the pERK increase” value ([1]; 1 hour after treatment) is on record?
Answer: lesser extent

Question: With `O=C1CCc2c(Oc3ccc4c(c3)[C@@H]3[C@H](O4)[C@H]3c3nc4ccc(C(F)(F)F)cc4[nH]3)ccnc2N1` [BGB-283] as the compound, how does the “extent of the pERK increase” value ([1]; 1 hour after treatment) read?
Answer: higher extent

Question: Which results are given for `N#Cc1c(Oc2ccc(F)c(NC(=O)Cc3cccc(C(F)(F)F)c3)c2)ccc2nc(NC(=O)C3CC3)sc12` [TAK-632]?
Answer: pEC50 [2]: 7.52; pIC50 (ARAF): 6.67; pIC50 (BRAF wt): 8.08; pIC50 (CRAF wt): 8.85; pEC50 (MeWo; read-out: Proliferation EC50, CTG 72 hours after treatment, repeated application of tovorafenib): 5.39; pEC50 (A375; A375, CTG 72 hours after treatment, repeated application of tovorafenib): 7.15; pEC50 (pERK in MeWo (NF1-LOF); read-out: pERK EC50, NF1-LOF, melanoma, 1 hour after treatment, n = 2): 5.80; pEC50 (sNF96.2; sNF96.2, CTG 72 hours after treatment, repeated application of tovorafenib): 5.62; pEC50 ([3]; sNF96.2, NF1-LOF, MPNST, 1 hour after treatment, n = 2): 6.12; pEC50 (NCI-H1838; NCI-H1838, CTG 72 hours after treatment, n = 1, repeated application of tovorafenib): 5.48; extent of the pERK increase ([1]; 1 hour after treatment): lesser extent; pEC50 ([1]; NCI-H1838, NF1-LOF, lung, 1 hour after treatment, n = 1): 5.90

Question: With `CCCS(=O)(=O)Nc1ccc(F)c(C(=O)c2c[nH]c3ncc(-c4ccc(Cl)cc4)cc23)c1F` [Vemurafenib] as the compound, how does the pEC50 ([2]; Homo sapiens, A-375) read?
Answer: 7.70

Question: And the pEC50 (MeWo; Homo sapiens, 72 h, read-out: Proliferation EC50)?
Answer: 5.35

Question: What about the pEC50 (A375; Homo sapiens, A-375, 72 h) of the same compound?
Answer: 7.05

Question: And the pEC50 (pERK in MeWo (NF1-LOF); Homo sapiens, 1 h, read-out: pERK EC50)?
Answer: < 5.00

Question: And the pEC50 (sNF96.2; SNF96.2, 72 h)?
Answer: 5.22

Question: What about the pEC50 ([3]; SNF96.2, 1 h) of the same compound?
Answer: < 5.00

Question: What about the pEC50 (NCI-H1838; Homo sapiens, NCI-H1838, 72 h) of the same compound?
Answer: < 5.00

Question: And the pEC50 ([1]; Homo sapiens, NCI-H1838, 1 h)?
Answer: < 5.00

Question: And the “sensitivity of cell lines” value (NF1-LOF tumor cell lines)?
Answer: insensitive

Question: For `Cc1ccc2c(Nc3cccc(Cl)c3F)nccc2c1NC(=O)c1csc2c(N)ncnc12` [Belvarafenib], which “extent of the pERK increase” value ([1]; 1 hour after treatment) is on record?
Answer: lesser extent
